One series relates to bone resorption. The settings on record: by inhibiting calcium release; cited from earlier work.
Series [1] has as its system actin cytoskeleton in bovine aortic endothelial cells (BAEc). Description: effect on the actin cytoskeleton (stress fibers) in living BAEc. The class given is cell-based. An excerpt:
The inventors' initial interest in studying these C-glucosidic ellagitannins stems from the premise that the highly pre-organized medium-sized ring-containing multiple-phenol array featured by such natural products should be structurally well-suited to interfere with the construction of protein-made cellular architectures, on top of the list of which are actin filaments and microtubules. The inventors thus decided to probe the latter hypothesis by first examining the effect of a selection of four C-glucosidic ellagitannins on the actin cytoskeleton in living cells. […] The selected compounds were the two most abundant C-glucosidic ellagitannins found in the heartwood of oak species, vescalagin and its C-1 epimer castalagin, and their corresponding two minor congeners, vescalin and castalin, both lacking the hexahydroxydiphenoyl (HHDP) unit at positions 4 and 6 of the glucose core (FIG. 1). The inventors used bovine aortic endothelial cells (BAEc), a well-characterized type of primary cells. Any of the four ellagitannins used at 50 μM rapidly provoked the disappearance of the internal stress fiber network observed in control cells.

Another series relates to microtubule network. The series can be described thus: alteration of the microtubule network in treated cells. The class given is cell-based.
The subject of series [2] is osteoclast. The settings on record: cited from earlier work.
The test system of another series is actin (G-actin/F-actin). Description: in vitro actin polymerization, F-actin (pellet) versus G-actin (supernatant) at steady state. In kind it is biochemical. The note with it: for G-actin/F-actin ratio at steady state: vescalagin 100 μM, cytochalasin D 4 μM, phalloidin 2 μM. The method, then:
(§1) FIG. 4. A. Actin polymerization at its steady state in both permissive and non-permissive conditions was continued (30 min) in the presence of either alexa633-phalloidin or vescalagin-FITC. […] B. This effect is dose-dependent. C.
In the same way, quantifying the amount of F-actin (pellet) versus that of G-actin (supernatant) at the steady state was achieved by Western blot after high-speed centrifugation of samples treated with either vescalagin (100 μM), cytochalasin D (4 μM) or phalloidin (2 μM). […] The same effect was observed when using the vescalagin-FITC conjugate (FIG. 4C).

For series [3], the system named is BAEc. Description: cellular morphology and mitosis, light microscopy. In kind it is cell-based, bovine. The text has this: (§2) Vescalagin-induced dissolution of stress fibers affected cellular morphology and, eventually, viability. […] Functional consequences on cell behavior translated into impaired endothelial cell wound repair capacity. […] Overall, this ensemble of experimental data illustrates the rapid and sustained effects of vescalagin on cell behavior.

Series [4] deals with F-actin. The series can be described thus: phalloidin binding to vescalagin-decorated F-actin (binding site).
In a further series the test system is actin cytoskeleton. Description: reversibility of cytoskeletal alterations by washing out. In kind it is cell-based. An excerpt:
The vescalagin-induced F-actin disrupting effect seen in BAEc was also observed in fibroblast cells (baby hamster kidney cells, BHK), which also express β-actin as the main actin isoform, as well as in smooth muscle cells (A7r5), which in contrast predominantly express α-actin.
It rapidly enters cells, and this despite its high hydrophilicity. Its dose-dependent effects on the actin cytoskeleton relies on its interaction with F-actin without any perturbation of the microtubule network. […] The results found by the inventors are consistent with a mode of action through which the binding of vescalagin occurs along the length of the actin filament, probably at the protein-protein interface of the so-polymerized actin supramolecular association. The presence of two analogous polyhydroxylated arene motifs (i.e., the NHTP and HHDP units, see FIG. 1) likely constitutes the key structural feature that enables vescalagin to wind F-actin into balls by engaging it through multiple intra- and/or intermolecular contacts. […] Future studies will be devoted to the elucidation of the vescalagin-actin interaction at the molecular level and to the comparative evaluation of the anti-actin effects of the other C-glucosidic ellagitannins initially screened herein. Moreover, the SPR method the inventors developed using a biotinylated vescalagin conjugate to discriminate the binding of vescalagin to F- versus G-actin confirms the value of the technique for the study of polyphenol-protein interactions. Finally, the inventors have to recall that oak-derived C-glucosidic ellagitannins, including vescalagin, are present in wines as a result of their aging in oak-made barrels.

A further series has as its system actin-GFP in BAEc. The series can be described thus: live imaging and FRAP on actin-GFP expressing BAEc. The class given is cell-based, bovine. The note with it: 100 μM. Here is the method: FIG. 2. Live imaging of BAEc expressing actin-GFP were subjected to FRAP in the absence or presence of vescalagin (100 μM). A. A boxed region (200×100 pixel square) was photobleached [before (t 0″), immediately after (t 38″) and after photobleaching (t 98″)]; and normalized fluorescence intensity in the boxed region is shown for the entire duration of the FRAP experiment. […] B. Quantitation of the results showing the immobile fraction as calculated from the difference between pre- and post-photobleaching intensities (n=6).
Destabilization of the stress fibers was visualised by the progressive loss of filamentous staining, concomitantly with cell retraction as observed in phase contrast. Noticeably, thick F-actin bundles were maintained. To detect and unveil the internal dynamics of these apparently immobile F-actin bundles, the inventors performed a fluorescence recovery after photobleaching (FRAP) assay on actin-GFP expressing BAEc in the absence or presence of vescalagin (FIG. 2). […] From these experiments, the inventors conclude that vescalagin affects both thin and thick actin fibers, F-actin bundles made of packed actin filaments being less vulnerable to the action of vescalagin than the single filament dendritic meshwork at the cell periphery.

Series [5] concerns mechanically injured endothelium. The series can be described thus: endothelial cell wound repair. In kind it is cell-based, bovine.
Excerpt: as §2

Series [6] has as its system BAEc. The series can be described thus: propidium iodide (PI) staining, cytotoxicity. In kind it is cell-based, bovine. The note with it: for cytotoxicity by PI staining: 50 μM.
Excerpt: as §2

Series [7] deals with podosomes in bovine aortic endothelial cells (BAEc). The series can be described thus: podosome formation in TGF-β stimulated BAEc. The class given is cell-based. The note with it: for inhibition of podosome formation: compound added from the beginning of the TGF-β stimulation (24 h) versus last hour. Here is the method: FIG. 7. Dose responses of endothelial cells following vescalagin or vescalin treatment. BAEc were incubated for 24 hours with TGF-β (which stimulates formation of podosomes), and different concentrations of vescalagin or vescalin were added either from the beginning of the TGF-β stimulation, or during the last hour of stimulation. Cells were then fixed and treated for immunofluorescence analysis. Podosomes were visualized by double staining using phalloidin (a F-actin marker) and cortactin (a podosome marker). The percentage of total cells showing podosomes was then quantified and compared to the control (cells incubated with TGF-β only). A. BAEc were stimulated for 24 hours with TGF-β, and vescalagin or vescalin was added during the last hour of stimulation. B. BAEc were stimulated for 24 hours with TGF-β, and vescalagin or vescalin was added from the beginning of the TGF-β stimulation.
In this assay, bovine aortic endothelial cells (BAEc) were used. These cells form podosomes following a few hours of incubation with TGF-β. Cells were fixed after 24 hours of stimulation. Two protocols were tested. In the first protocol, cells were stimulated for 24 hours with TGF-β, and vescalagin or vescalin was added during the last hour of stimulation (FIG. 7A). In the second protocol, cells were stimulated for 24 hours with TGF-β, and vescalagin or vescalin was added from the beginning of the TGF-β stimulation (FIG. 7B). In both cases, cells were then fixed and treated for immunofluorescence analysis. Podosomes were visualized by double staining using phalloidin (a F-actin marker) and cortactin (a podosome marker). The percentage of total cells showing podosomes was then quantified and compared to the control (cells incubated with TGF-β only) (FIGS. 7A and 7B).

In series [8] the test system is F-actin. Description: in vitro actin polymerization, high-speed centrifugation, stained pellet. The note with it: 30 min at steady state. The class given is binding. The method, then:
as §1
To explore whether or not the interaction between vescalagin and actin was direct, the inventors set up an in vitro assay based on actin polymerization from a solution of Ca^2+-actin-ATP monomers. Spontaneous polymerization occurs when Ca^2+ is replaced by Mg^2+ provided by the F-actin buffer. The inventors performed high-speed centrifugation of the samples to separate the neo-formed polymers from the monomers to discriminate binding of vescalagin to either F-actin, G-actin or both. To visualize these presumptive molecular associations, the inventors used again the vescalagin-bearing fluoprobe and a fluorescent Alexa633-phalloidin to stain F-actin. Actin polymerization was carried out until it reached its steady state in both permissive and non-permissive conditions (i.e., in the presence or absence of Mg^2+-containing F-buffer). The experiment was then continued for 30 min in the presence of either vescalagin-FITC conjugate or Alexa633-phalloidin, and the formation of actin polymers was then assessed by high-speed centrifugation.

Series [9] concerns osteoclast. The note with it: cited from earlier work. This is another data set of the same source.

Entries after “also recorded” stand apart in the source; their conditions may differ. *1 amine or outer side, *2 acyl side, *3 side chain or, on linkers, in order; H or OH if unused. Where a SMILES comes first, the peptide text is derived from it. Bridges are numbered along the chain shown (N, C = ends). [ ]: non-standard residue; d: D form. Trp(2-yl) = O=C([C@H](Cc1c([*:3])[nH]c2ccccc12)N[*:1])[*:2]; Leu(4R-OH,5-OH) = C[C@](O)(CO)C[C@H](N)C(=O)O; cisHyp = O=C(O)[C@@H]1C[C@H](O)CN1

Turning to `O=C(OC1C(OC(=O)c2cc(O)c(O)c(O)c2Oc2cc3c(c(O)c2O)-c2c(cc(O)c(O)c2O)C(=O)OC(C2OC(=O)c4cc(O)c(O)c(O)c4-c4c(cc(O)c(O)c4O)C(=O)OCC2O)C(C(O)c2c(O)cc4c(c2O)CC(O)C(c2ccc(O)c(O)c2)O4)OC3=O)C(O)OC2COC(=O)c3cc(O)c(O)c(O)c3-c3c(cc(O)c(O)c3O)C(=O)OC21)c1cc(O)c(O)c(O)c1` (stereo not shown) [camelliatannin D], the bone resorption entry in the series with bone resorption was “potentially inhibits bone resorption”.

As for `C=C1[C@@H](C)[C@H]2[C@H](Cc3ccccc3)NC(=O)[C@]23[C@H](OC(C)=O)/C=C/[C@@](C)(O)C(=O)[C@@H](C)C/C=C/[C@H]3[C@@H]1O` [cytochalasin D, reference compound], the “effect on actin configuration (stress fibers)” value in [1] (BAEc, cytochalasin D comparison) is listed as “also effective”. Also, the “alteration of the microtubule network” value with microtubule network is “no alteration of the microtubule network”.

With `O=C1O[C@H]2[C@H](O)[C@@H](OC(=O)c3cc(O)c(O)c4c3[C@@H]3C1=CC(=O)C(O)(O)C3(O)O4)[C@H](OC(=O)c1cc(O)c(O)c(O)c1)O[C@@H]2CO` (stereo partly shown) [furosin], the “osteoclast differentiation and function” value with osteoclast [2] is listed as “inhibitory effect”.

On to `C[C@@H]1NC(=O)[C@H](C[C@@](C)(O)CO)NC(=O)[C@@H]2Cc3c([nH]c4ccccc34)SC[C@H](NC(=O)[C@@H]([C@H](C)O)NC1=O)C(=O)N1C[C@@H](O)C[C@H]1C(=O)N[C@@H](C)C(=O)N2` [phalloidin, reference compound] (cyclo(A[dT]C[cisHyp]A[Trp(2-yl)][Leu(4R-OH,5-OH)]); thioether 3-6), for which, in the series with actin (G-actin/F-actin), the “G-actin/F-actin ratio at steady state” value is given as “marked depletion of G-actin”.

On to `O=C1OCC2OC(=O)c3cc(O)c(O)c(O)c3-c3c(O)c(O)c(O)c4c3C(=O)OC(C2OC(=O)c2cc(O)c(O)c(O)c2-c2c1cc(O)c(O)c2O)C1OC(=O)c2c-4c(O)c(O)c(O)c2C1O` (stereo not shown) [vescalagin], for which the mitosis entry with BAEc [3] (50 μM) was “still observed”; with BAEc [3] (100 μM), “impaired”. The cell morphology result with BAEc [3] (range of concentrations and incubation times applied) is listed as “changed their morphology from a well spread to a more retracted appearance”. Also, in the series on F-actin [4], the “binding site on F-actin relative to phalloidin” value is listed as “does not bind at the same site(s) as phalloidin”. Besides, in series [1] (four C-glucosidic ellagitannins), the “relative activity within the series evaluated” value is recorded as “most active compound of the series”. Besides, the “reversibility of actin cytoskeleton alterations by washing” value was “reversible by washing” in the series with actin cytoskeleton (treatment 1 hour, 100 μM) and “reversible by washing” in the series on actin cytoskeleton (treatment 24 hours, 50 μM). Further, the “reversal of cytoskeletal alterations by washing out with fresh medium” value in the series with actin cytoskeleton (within 1 h) was “completely reversed”. In the series with actin cytoskeleton (within 1 h of treatment, up to 100 μM), the “reversibility of effects on the actin cytoskeleton” value is “fully reversible”. Also, the “actin-GFP distribution, live imaging” value in the series with actin-GFP in BAEc is “immediate alteration of actin-GFP distribution at cell margin”. In the series with actin-GFP in BAEc (n=6), the “immobile fraction of actin (FRAP)” value is reported as “increases the immobile fraction of actin”. Moreover, in the series on actin (G-actin/F-actin), the “dose dependence of the G-actin depletion” value is “dose-dependent manner”. Further, the “G-actin/F-actin ratio at steady state” value in the series on actin (G-actin/F-actin) was “marked depletion of G-actin”. Further, in the series on microtubule network, the “alteration of the microtubule network” value is “no alteration of the microtubule network”. Further, in [5] (20 μM), the “serum-stimulated healing of mechanically injured endothelium” value is recorded as “reduced by about half”. For the same compound, the cell viability result in [5] (100 μM, 6 h) is recorded as “still compatible with the maintenance of cell viability”. In addition, the “repopulation of the denudated area” value in series [5] (100 μM, 6 h) is “remained virtually unpopulated”. Besides, the “cytotoxicity by PI staining” value in the series with BAEc [6] (6 h) and in the series with BAEc [6] (24 h) was “no cytotoxicity” each time. The “cell death (apoptotic nuclei)” value in the series with BAEc [6] (100 μM, 24 h) is “irreversible commitment to cell death; also recorded: presence of apoptotic nuclei”. Also, the “inhibition of podosome formation (percentage of cells showing podosomes)” value in series [7] (24 h TGF-β, vescalagin versus vescalin) is recorded as “stronger inhibitor activity than vescalin”. Also, the “inhibition of podosome formation” value in [7] is “less pronounced effects”.

Turning to `O=C1O[C@H](CO)[C@@H](O)[C@@H]2OC(=O)c3c(c(O)c(O)c(O)c3-c3c(O)c(O)c(O)c4c3C(=O)O[C@H]2[C@@H]4O)-c2c1cc(O)c(O)c2O` [vescalin], the “inhibition of podosome formation” value in series [7] is “less pronounced effects”.

fluorescein isothiocyanate [FITC]: the “binding to F-actin (stained pellet after high-speed centrifugation)” value in the series with F-actin [8] is given as “no F-actin was detected”.

As for roburin C, the “inhibition of osteoclast differentiation and function” value with osteoclast [9] was “highest potency”.

As for roburin D, the “inhibition of osteoclast differentiation and function” value with osteoclast [9] was “highest potency”.

The record behind these values is patent US20130324595A1, “C-GLUCOSIDIC ELLAGITANNIN COMPOUNDS FOR USE FOR ALTERING THE SUPRAMOLECULAR ARRANGEMENT OF ACTIN AND FOR THE TREATMENT OF OSTEOPOROSIS, CANCER, BACTERIAL INFECTION AND VIRAL INFECTION” (priority 2011, published 2013).
